Results published in PubChem BioAssay AID330 (DTP/NCI, 2004).
“And” between values parts separate entries of the source, which are not always exact repeats. Equal entries are not always repeated. Toxic doses and inconclusive results are not listed.

System: P388 leukemia ip, CD2F1 mice, survival T/C
Assay: NCI In Vivo Anticancer Drug Screen. Data for tumor model P388 Leukemia (intraperitoneal) in CD2F1 (CDF1) mice
Conditions: endpoint: median survival time, higher = longer survival
Summary of the method: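 Mice carrying the transplanted tumor received test compound or vehicle. Survival was recorded in each group, and the value is the treated-group measurement divided by that of the vehicle-treated control group.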

[1] = dose: 100.0 mg/kg/injection, schedule: Q01DX009 (ip), vehicle: Klucel (hydroxypropylcellulose) (HPC)
[2] = dose: 100.0 mg/kg/injection, schedule: Q01DX001 (ip), vehicle: saline with Tween-80
[3] = dose: 200.0 mg/kg/injection, schedule: Q01DX001 (ip), vehicle: saline with Tween-80
[4] = dose: 50.0 mg/kg/injection, schedule: Q01DX005 (ip), vehicle: saline with Tween-80
[5] = dose: 100.0 mg/kg/injection, schedule: Q01DX005 (ip), vehicle: saline with Tween-80
[6] = dose: 60.0 mg/kg/injection, schedule: Q01DX005 (ip), vehicle: saline with Tween-80
[7] = dose: 120.0 mg/kg/injection, schedule: Q01DX005 (ip), vehicle: saline with Tween-80

## O=C1c2ccccc2C(=O)c2c1cccc2N1CCOCC1
dose: 50.0 mg/kg/injection, schedule: Q01DX009 (ip), vehicle: Klucel (hydroxypropylcellulose) (HPC)
  T/C: 99 % of control and 100 % of control
[1]
  T/C: 101 % of control
dose: 200.0 mg/kg/injection, schedule: Q01DX009 (ip), vehicle: Klucel (hydroxypropylcellulose) (HPC)
  T/C: 103 % of control and 94 % of control

## CCCCN1CCN(c2ccc([N+](=O)[O-])c3no[n+]([O-])c23)CC1
dose: 8.0 mg/kg/injection, schedule: Q04DX003 (ip), vehicle: suspension in saline
  T/C: 102 % of control
dose: 16.0 mg/kg/injection, schedule: Q04DX003 (ip), vehicle: suspension in saline
  T/C: 99 % of control
dose: 32.0 mg/kg/injection, schedule: Q04DX003 (ip), vehicle: suspension in saline
  T/C: 108 % of control

## NC(=S)N/N=C/c1nc2ccccn2c1[N+](=O)[O-]
[1]
  T/C: 86 % of control

## Cc1ccc(S(=O)(=O)NC(=O)NC(=S)c2cccc3ccccc23)cc1
[2]
  T/C: 101 % of control
[3]
  T/C: 99 % of control
dose: 400.0 mg/kg/injection, schedule: Q01DX001 (ip), vehicle: saline with Tween-80
  T/C: 102 % of control

## O=C(C[n+]1ccsc1Br)c1ccccc1
[4]
  T/C: 102 % of control
[5]
  T/C: 119 % of control

## NCCCn1[nH]c(=O)c2cccnc2c1=O
[6]
  T/C: 101 % of control
[7]
  T/C: 100 % of control
dose: 240.0 mg/kg/injection, schedule: Q01DX005 (ip), vehicle: saline with Tween-80
  T/C: 95 % of control

## C=CCC1(CC=C)CC1OCC (centres undefined)
dose: 50.0 mg/kg/injection, schedule: Q01DX005 (ip), vehicle: saline
  T/C: 98 % of control
dose: 100.0 mg/kg/injection, schedule: Q01DX005 (ip), vehicle: saline
  T/C: 100 % of control
dose: 200.0 mg/kg/injection, schedule: Q01DX005 (ip), vehicle: saline
  T/C: 100 % of control

## NC(=S)N/N=C1/CCCC/C1=N/O
[6]
  T/C: 100 % of control
[7]
  T/C: 100 % of control

## C=CCNC(=S)NNC(=O)CNC(c1ccc(OC)cc1)C(CC)c1ccc(OC)cc1 (centres undefined)
[2]
  T/C: 99 % of control
[3]
  T/C: 110 % of control

## S=C(S)N1CCCNCC1 (tested in a mixture with another compound)
dose: 12.5 mg/kg/injection, schedule: Q01DX009 (ip), vehicle: saline with Tween-80
  T/C: 101 % of control and 89 % of control
dose: 25.0 mg/kg/injection, schedule: Q01DX009 (ip), vehicle: saline with Tween-80
  T/C: 92 % of control and 97 % of control
dose: 50.0 mg/kg/injection, schedule: Q01DX009 (ip), vehicle: saline with Tween-80
  T/C: 86 % of control and 97 % of control

## O=C(N/N=C/C(O)C1OC(=O)C(O)C1O)c1ccncc1 (centres undefined)
dose: 50.0 mg/kg/injection, schedule: Q01DX005 (ip), vehicle: Klucel (hydroxypropylcellulose) (HPC)
  T/C: 105 % of control
dose: 100.0 mg/kg/injection, schedule: Q01DX005 (ip), vehicle: Klucel (hydroxypropylcellulose) (HPC)
  T/C: 101 % of control
dose: 200.0 mg/kg/injection, schedule: Q01DX005 (ip), vehicle: Klucel (hydroxypropylcellulose) (HPC)
  T/C: 99 % of control

## CC1(C)C2=CC3(C)N(CN2c2ccccc21)c1ccccc1C3(C)C (centres undefined)
dose: 60.0 mg/kg/injection, schedule: Q01DX005 (ip), vehicle: Klucel (hydroxypropylcellulose) (HPC)
  T/C: 92 % of control
dose: 120.0 mg/kg/injection, schedule: Q01DX005 (ip), vehicle: Klucel (hydroxypropylcellulose) (HPC)
  T/C: 95 % of control
dose: 240.0 mg/kg/injection, schedule: Q01DX005 (ip), vehicle: Klucel (hydroxypropylcellulose) (HPC)
  T/C: 95 % of control

## CCOC(CN=Cc1cc(C)c2[nH]c3ccccc3c2c1C)OCC
[4]
  T/C: 97 % of control
[5]
  T/C: 102 % of control
dose: 200.0 mg/kg/injection, schedule: Q01DX005 (ip), vehicle: saline with Tween-80
  T/C: 102 % of control

## Cc1ccc(NC(=O)N2CCOCC2)cc1NC(=O)N1CCOCC1
dose: 50.0 mg/kg/injection, schedule: Q01DX009 (ip), vehicle: saline
  T/C: 100 % of control
dose: 100.0 mg/kg/injection, schedule: Q01DX009 (ip), vehicle: saline
  T/C: 91 % of control

## FC(F)(F)S.[Hg]
dose: 2.5 mg/kg/injection, schedule: Q04DX003 (ip), vehicle: saline
  T/C: 95 % of control
dose: 5.0 mg/kg/injection, schedule: Q04DX003 (ip), vehicle: saline
  T/C: 100 % of control
dose: 10.0 mg/kg/injection, schedule: Q04DX003 (ip), vehicle: saline
  T/C: 95 % of control
